Values joined by “and” are separate entries in the source; they are usually repeats but may differ in a detail not shown here. Equal entries are not always repeated. Toxic doses and inconclusive results are not listed. No stated cut-off is given here; in the data, active means T/C of 150% or more; inactive means T/C below 125%.
System: L1210 leukemia ip in BDF1 mice, survival T/C
Assay: NCI In Vivo Anticancer Drug Screen. Data for tumor model L1210 Leukemia (intraperitoneal) in B6D2F1 (BDF1) mice
Details: endpoint: mean survival time, higher = longer survival
Method in brief: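 Read-out is survival time, reported as the treated-group measurement over the vehicle-control measurement.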

[1] = dose: 100.0 mg/kg/injection, schedule: Q01DX009 (ip), vehicle: Klucel (hydroxypropylcellulose) (HPC)
[2] = dose: 100.0 mg/kg/injection, schedule: Q04DX003 (ip), vehicle: Klucel (hydroxypropylcellulose) (HPC)
[3] = dose: 200.0 mg/kg/injection, schedule: Q01DX009 (ip), vehicle: Klucel (hydroxypropylcellulose) (HPC)
[4] = dose: 200.0 mg/kg/injection, schedule: Q04DX003 (ip), vehicle: Klucel (hydroxypropylcellulose) (HPC)
[5] = dose: 400.0 mg/kg/injection, schedule: Q01DX009 (ip), vehicle: Klucel (hydroxypropylcellulose) (HPC)
[6] = dose: 400.0 mg/kg/injection, schedule: Q04DX003 (ip), vehicle: Klucel (hydroxypropylcellulose) (HPC)
[7] = dose: 100.0 mg/kg/injection, schedule: Q01DX009 (ip), vehicle: saline with Tween-80
[8] = dose: 200.0 mg/kg/injection, schedule: Q01DX009 (ip), vehicle: saline with Tween-80
[9] = dose: 400.0 mg/kg/injection, schedule: Q01DX009 (ip), vehicle: saline with Tween-80
[10] = dose: 400.0 mg/kg/injection, schedule: Q04DX002 (ip), vehicle: Klucel (hydroxypropylcellulose) (HPC)
[11] = dose: 100.0 mg/kg/injection, schedule: Q04DX003 (ip), vehicle: saline with Tween-80
[12] = dose: 200.0 mg/kg/injection, schedule: Q04DX003 (ip), vehicle: saline with Tween-80
[13] = dose: 400.0 mg/kg/injection, schedule: Q04DX003 (ip), vehicle: saline with Tween-80
[14] = dose: 100.0 mg/kg/injection, schedule: Q04DX003 (ip), vehicle: saline
[15] = dose: 200.0 mg/kg/injection, schedule: Q04DX003 (ip), vehicle: saline
[16] = dose: 400.0 mg/kg/injection, schedule: Q04DX003 (ip), vehicle: saline

Measured: T/C

NC(CSS(=O)(=O)O)=NCCCC1CCCCC1
inactive: dose: 6.25 mg/kg/injection, schedule: Q04DX002 (ip), vehicle: saline with Tween-80 97 % of control | dose: 12.5 mg/kg/injection, schedule: Q04DX002 (ip), vehicle: saline with Tween-80 101 % of control

CC12C=CC(C=C1)C(O)C2 (centres undefined)
inactive: [1] 101 % of control | [2] 97 % of control | [3] 114 % of control | [4] 96 % of control | [5] 90 % of control | [6] 94 % of control

CC(=O)Nc1ccc(NC(=O)Nc2cccc(F)c2)cc1
inactive: [7] 92 % of control | [8] 89 % of control | [9] 92 % of control

COc1cccc(CC(C(=O)c2ccc(O)cc2)c2ccccc2)c1 (centres undefined)
inactive: dose: 100.0 mg/kg/injection, schedule: Q01DX001 (ip), vehicle: saline 97 % of control | dose: 200.0 mg/kg/injection, schedule: Q01DX001 (ip), vehicle: saline 97 % of control | dose: 400.0 mg/kg/injection, schedule: Q01DX001 (ip), vehicle: saline 101 % of control

CC(=Nc1cc(C)c(C)cc1C)c1c(O)cc(C)oc1=O
inactive: [1] 93 % of control | dose: 100.0 mg/kg/injection, schedule: Q04DX002 (ip), vehicle: Klucel (hydroxypropylcellulose) (HPC) 98 % of control | [3] 98 % of control | dose: 200.0 mg/kg/injection, schedule: Q04DX002 (ip), vehicle: Klucel (hydroxypropylcellulose) (HPC) 98 % of control | [5] 87 % of control | [10] 98 % of control

COc1ccc(OC(C)=O)c(/C=C\C=O)c1
inactive: dose: 100.0 mg/kg/injection, schedule: Q01DX001 (ip), vehicle: carboxymethylcellulose (CMC) 94 % of control | dose: 200.0 mg/kg/injection, schedule: Q01DX001 (ip), vehicle: carboxymethylcellulose (CMC) 100 % of control | dose: 400.0 mg/kg/injection, schedule: Q01DX001 (ip), vehicle: carboxymethylcellulose (CMC) 100 % of control

CCc1ccccc1OS(=O)(=O)c1ccc([N+](=O)[O-])cc1
inactive: [1] 109 % of control | [2] 92 % of control | [3] 102 % of control | [4] 100 % of control | [5] 102 % of control | [6] 100 % of control

CN1CCN(C2=Cc3ccccc3C(O)C(Cc3ccccc3)=N2)CC1 (centres undefined)
inactive: [11] 100 % of control | [12] 96 % of control | [13] 96 % of control

CCCSC(CCc1cnc(N)nc1C)SCCC
inactive: [10] 94 % of control

CCCOc1ccc(/C=N\N=C\c2ccc(OCCC)cc2)cc1
inactive: [7] 94 % of control | [8] 94 % of control | [9] 91 % of control

CCOC(=O)CCCCSCCCCC(=O)OCC
inactive: [7] 91 % of control | [8] 101 % of control | [9] 102 % of control

O=[N+]([O-])c1ccc(NN=C(CO)CO)c([N+](=O)[O-])c1
inactive: dose: 100.0 mg/kg/injection, schedule: Q01DX005 (ip), vehicle: saline 98 % of control | [14] 101 % of control | dose: 200.0 mg/kg/injection, schedule: Q01DX005 (ip), vehicle: saline 93 % of control | [15] 100 % of control | dose: 400.0 mg/kg/injection, schedule: Q01DX005 (ip), vehicle: saline 86 % of control | [16] 100 % of control

CNC(=S)N/N=C1/C(=N\NC(=S)NC)C(=O)OC1C(O)CO (centres undefined)
inactive: dose: 100.0 mg/kg/injection, schedule: Q01DX001 (ip), vehicle: other 93 % of control | [7] 98 % of control | [11] 100 % of control | dose: 200.0 mg/kg/injection, schedule: Q01DX001 (ip), vehicle: other 95 % of control | [8] 112 % of control | [12] 89 % of control | dose: 400.0 mg/kg/injection, schedule: Q01DX001 (ip), vehicle: other 90 % of control | [13] 91 % of control

Cc1nc2c(o1)CCCC2
inactive: dose: 25.0 mg/kg/injection, schedule: Q01DX009 (ip), vehicle: carboxymethylcellulose (CMC) 94 % of control and 107 % of control | dose: 50.0 mg/kg/injection, schedule: Q01DX009 (ip), vehicle: carboxymethylcellulose (CMC) 97 % of control and 103 % of control | dose: 100.0 mg/kg/injection, schedule: Q01DX009 (ip), vehicle: carboxymethylcellulose (CMC) 94 % of control and 105 % of control | dose: 100.0 mg/kg/injection, schedule: Q04DX002 (ip), vehicle: carboxymethylcellulose (CMC) 103 % of control and 113 % of control | dose: 200.0 mg/kg/injection, schedule: Q04DX002 (ip), vehicle: carboxymethylcellulose (CMC) 98 % of control and 100 % of control | dose: 400.0 mg/kg/injection, schedule: Q04DX002 (ip), vehicle: carboxymethylcellulose (CMC) 88 % of control

CC[N+](C)(CC)CCC[n+]1c(-c2ccccc2)c2cc(N)ccc2c2ccc(N)cc21
inactive: dose: 1.56 mg/kg/injection, schedule: Q01DX009 (ip), vehicle: saline 104 % of control | dose: 1.56 mg/kg/injection, schedule: Q04DX003 (ip), vehicle: saline 100 % of control | dose: 3.12 mg/kg/injection, schedule: Q01DX009 (ip), vehicle: saline 109 % of control and 110 % of control | dose: 3.12 mg/kg/injection, schedule: Q04DX003 (ip), vehicle: saline 109 % of control | dose: 6.25 mg/kg/injection, schedule: Q01DX009 (ip), vehicle: saline 100 % of control and 110 % of control | dose: 6.25 mg/kg/injection, schedule: Q04DX003 (ip), vehicle: saline 112 % of control | dose: 6.25 mg/kg/injection, schedule: Q04DX003 (ip), vehicle: water 98 % of control | dose: 12.5 mg/kg/injection, schedule: Q04DX003 (ip), vehicle: water 93 % of control

O=c1ccc2c(-c3cc(S(=O)(=O)O)ccc3O)c3ccc(O)cc3oc-2c1
inactive: [2] 91 % of control | [4] 89 % of control | [6] 91 % of control

NSc1ccccc1[N+](=O)[O-]
inactive: [2] 100 % of control | [4] 105 % of control | [6] 100 % of control

Cc1ccccc1C1SCCCS1
inactive: [11] 101 % of control | [12] 96 % of control | [13] 107 % of control

C(=Nc1cnc2sccc2c1)c1ccccc1
inactive: [2] 100 % of control | [4] 100 % of control | [6] 94 % of control

C=C1C(=O)OC2/C=C(\C)CC(O)/C=C(/C)CCC12 (centres undefined)
inactive: dose: 12.5 mg/kg/injection, schedule: Q04DX003 (ip), vehicle: Klucel (hydroxypropylcellulose) (HPC) 96 % of control | dose: 25.0 mg/kg/injection, schedule: Q04DX003 (ip), vehicle: Klucel (hydroxypropylcellulose) (HPC) 105 % of control | dose: 50.0 mg/kg/injection, schedule: Q04DX003 (ip), vehicle: Klucel (hydroxypropylcellulose) (HPC) 100 % of control

CN(C)C(=S)Oc1ccc(OC(=S)N(C)C)cc1
inactive: [11] 100 % of control | [12] 95 % of control | [13] 100 % of control

O=C(NOCc1cscn1)NC1CCCCC1
inactive: dose: 75.0 mg/kg/injection, schedule: Q01DX001 (ip), vehicle: saline 98 % of control

Cc1cccc(NC(=O)C2CCC(CC3CCCCC3)CC2)c1 (centres undefined)
inactive: dose: 50.0 mg/kg/injection, schedule: Q01DX001 (ip), vehicle: Klucel (hydroxypropylcellulose) (HPC) 89 % of control | dose: 100.0 mg/kg/injection, schedule: Q01DX001 (ip), vehicle: Klucel (hydroxypropylcellulose) (HPC) 89 % of control | dose: 200.0 mg/kg/injection, schedule: Q01DX001 (ip), vehicle: Klucel (hydroxypropylcellulose) (HPC) 87 % of control

C#CC(C)(O)C(C)(C)C (centres undefined)
inactive: dose: 100.0 mg/kg/injection, schedule: Q04DX002 (ip), vehicle: saline with Tween-80 91 % of control | dose: 200.0 mg/kg/injection, schedule: Q04DX002 (ip), vehicle: saline with Tween-80 95 % of control | dose: 400.0 mg/kg/injection, schedule: Q04DX002 (ip), vehicle: saline with Tween-80 87 % of control

C(=C\c1nc2ccccc2s1)/c1ccccc1
inactive: [14] 103 % of control | [15] 93 % of control | [16] 104 % of control

CC(=O)N(C1=C(N(CCO)CCO)C(=O)c2ccccc2C1=O)c1ccccc1
inactive: [11] 106 % of control | [12] 103 % of control | [13] 101 % of control

COc1ccc(/C=N/N=C(N)N)cc1
inactive: dose: 15.0 mg/kg/injection, schedule: Q01DX Z (ip), vehicle: saline 103 % of control | dose: 30.0 mg/kg/injection, schedule: Q01DX Z (ip), vehicle: saline 100 % of control | dose: 30.0 mg/kg/injection, schedule: Q01DX Z (oral), vehicle: other 93 % of control | dose: 60.0 mg/kg/injection, schedule: Q01DX Z (ip), vehicle: saline 95 % of control | dose: 60.0 mg/kg/injection, schedule: Q01DX Z (oral), vehicle: other 100 % of control | dose: 120.0 mg/kg/injection, schedule: Q01DX Z (oral), vehicle: other 98 % of control

Source: PubChem BioAssay AID248 (DTP/NCI, 2004)
